# From US7482318B2, “Protein kinase domain of the large subunit of herpes simplex type 2 ribonucleotide reductase (icp 10pk) has anti-apoptotic activity” (priority 2000, dated 2009)
# Where two headings read alike, the source gives them in different places.
# Experiments:
# JHL15 cells = assay: TUNEL assay of apoptosis inducers in JHL15 cells (express PK negative p139TM); type: cell-based, human; conditions: JHL15 cells (printed RHL15 for STS); 24 hours with 250 nM STS or 300 nM D-Mann; ±SEM
# Description: (§1) Vero (African green monkey kidney cells) were obtained from ATCC and grown in Minimum Essential Medium (MEM) with 10% fetal bovine serum (FBS) and antibiotics. HEK293 (human embryonic kidney) cells were grown in Dulbecco's Modified Eagle's Medium (DMEM) with 10% FBS, 1 mM sodium pyruvate, 0.1 mM non-essential amino acids, and antibiotics. The cell line JHLA1 was established from HEK293 cells by transfection with an ICP10 expression vector and clone selection with G418, and the cell line JHL15 was similarly constructed using a vector which expresses the transmembrane deleted mutant of ICP10, p139™, which is PK negative, as described (Smith et al. 1994, Virology, 200:598-612).
# (§2) Apoptosis was induced in HEI293 and JHLA1 cells using staurosporine (STS; Calbiochem, San Diego, Calif.) and D-manritol (D-Mann; Sigma, St. Louis, Mo.). […]
# (§3) In situ analysis of apoptosis was performed using In Situ Cell Death Detection Kit (Roche Molecular Biochemicals, Indianapolis, Ind.) according to the manufacturer's instructions. […] Coverslips were mounted in PBS/glycerol, and cells were analyzed by fluorescence microscopy. […] Coverslips were mounted in PBS/glycerol and analyzed by light microscopy. Apoptotic cells (characterized by a dark precipitate) and non-apoptotic cells (diffuse, light staining) were counted in at least five randomly chose microscopic fields (containing at least 250 cells). […]
# JHLA1 cells = assay: TUNEL assay of apoptosis inducers in JHLA1 cells (express ICP10); type: cell-based, human; conditions: JHLA1 cells (printed JHLA15); 24 hours with 250 nM STS or 300 nM D-Mann; ±SEM
# Description: as §1, §2, §3
# HEK293 cells = assay: TUNEL assay of apoptosis inducers in HEK293 cells; type: cell-based, human; conditions: 24 hours with 250 nM STS or 300 nM D-Mann, ±SEM, three experiments
# Description: as §1, §2, §3
# chromosomal DNA = assay: DNA fragmentation assay (agarose gel DNA ladder); type: cell-based, human; conditions: 24 hours post-treatment
# Description: (§4) Apoptosis was induced in HEI293 and JHLA1 cells using staurosporine (STS; Calbiochem, San Diego, Calif.) and D-manritol (D-Mann; Sigma, St. Louis, Mo.). Cells were plated in 6-well plates on glass coverslips or in flasks and allowed to grow for 24 hours at 37° C. in DMEM with 10% FBS, 1 mM sodium pyruvate, 0.1 mM non-essential amino acids, and antibiotics. At 24 hours after plating, media was removed by aspiration, and appropriate dilutions of apoptotic inducers (STS 250 nM, D-Mann 300 mM) were added to the cells for various times indicated in the text. All dilutions were made in cell growth media described above containing 1% FBS. At the indicated times after treatment, cells were processed for TUNEL or harvested for DNA extraction or Western blot assay.
# HEK293, JHLA1 and JHL15 cells treated or not treated with apoptotic inducers were collected by gentle scraping at 24 hours post-treatment/infection. DNA was extracted using Puregene DNA Isolation Kit (Gentra Systems, Minneapolis, Minn.) according to the manufacturer's instructions. After spectrophotometrical quantitation, 5-10 micrograms of DNA per samples was separated on a 1.5% agarose gel stained with 0.1 microgram/ml ethidium bromide. Fragmented DNA was visualized by exposure to UV light and photographed using a Polaroid MP-4 land camera.
# To determine whether ICP10PK blocks DNA fragmentation induced by STS and D-Mann, treated cells were analyzed using a DNA fragmentation assay which detects degradation of chromosomal DNA into oligonucleosomal fragments.
# [1] = tested on: primary hippocampal cultures; type: cell-based, rat
# Description: Briefly, minced fetal hippocampi were incubated with 0.25% trypsin for 30 minutes at 36° C. followed by dissociation of neurons in MEM supplemented with 10% FBS, 10% horse serum, 2 mM glutamine, and 20 microgram/ml DNase II, using a sterile Pasteur pipette. Neurons were plated at approximately 750,000 cells per 35 mm dish on glass coverslips pre-coated with poly-L-lysine and incubated at 36° C., 10% CO2. At 24 hours, media was replaced with MEM supplemented with 10% horse serum and 2 mM glutamine, and the cultures were returned to a 36 degrees C., 10% CO2 incubator.
# In situ analysis of apoptosis was performed using In Situ Cell Death Detection Kit (Roche Molecular Biochemicals, Indianapolis, Ind.) according to the manufacturer's instructions. Briefly, infected/treated or non-infected/non-treated cells were fixed with 4% paraformaldehyde (PFA) in PBS (pH=7.4) for 30 minutes at room temperature followed by permiabilization of cells in 0.1% Triton X-100 (in 0.1% sodium citrate) for 2 minutes on ice. DNA breaks were labeled by addition of terminal deoxynucleotidyl transferase (TdT) and nucleotide mixture (containing dUTP-fluorescein conjugated) and incubation for 60 minutes at 37° C. Coverslips were mounted in PBS/glycerol, and cells were analyzed by fluorescence microscopy. After extensive washes in PBS, cells were incubated for 30 minutes at 37° C. with an anti-fluorescein antibody conjugated with alkaline phosphatase (AP). Chromogenic reaction was carried out by adding AP substrate solution (NBT/BCIP in 0.1 M Tris-HCl pH=9.5, 0.05 M MCl2, 0.1M NaCl, and 1 mM levamisole) and incubation for 10 minutes at room temperature. Coverslips were mounted in PBS/glycerol and analyzed by light microscopy. Apoptotic cells (characterized by a dark precipitate) and non-apoptotic cells (diffuse, light staining) were counted in at least five randomly chose microscopic fields (containing at least 250 cells). The percentage of mock-infected neurons undergoing apoptosis (between 4 and 5%) was subtracted from each average.
# Cells were infected with 10 PFU/cell of HSV-2 or ICP10deltaPK and apoptosis was determined by TUNEL at 16 and 24 hours p.i. A total of 200-300 cells were counted in five randomly chosen microscopic fields and the mean percentage of TUNEL-positive cells was determined.
# PARP = assay: Western blot of PARP cleavage; type: cell-based, human; conditions: STS-treated
# Description: (§5) Cells were collected by gentle scraping and centrifuged at 2,500 rpm for 5 minutes at 4° C. The dry pellet was stored at −80° C. until use. Cells were lysed with RIPA buffer (30 mM Tris-Hcl pH=7.4, […], 1% Nonidet P-40, 0/1% SDS, 0.5% sodium deoxycholate, 1 mM EDTA, 1 mM DTT, 2 mM MgCl2, 0.5 mM PMSF) supplemented with phosphatase and protease inhibitor cocktails (Sigma, St. Louis, Mo.) and sonicated for 1 minute at 25% output power using the Sonicator/Ultrasonic Processor (Misonix, Inc., Farmingdale, N.Y.). Total protein was determined by BCA (Pierce, Rockford, Ill.) and proteins were resolved by SDS-PAGE. Transfer of separated proteins to Schlecher and Schuell nitrocellulose membranes was performed overnight using an electroblotting apparatus. Non-specific binding was blocked by incubating blots for 1 hour at 37° C. in TN-T buffer (0.01 M Tris-Hcl pH=7.4, 0.15 M NaCl, 0.05% Tween 20) containing 1% bovine serum albumin (BSA). […]
# To determine whether ICP10PK blocks PARP cleavage by caspase-3, a hallmark of caspase-3 dependent apoptosis, Western blot analysis using PARP antibody was performed on STS-treated HEK293, JHL15, and JHLA1 cells. A 116 kDa band consistent with the uncleaved PARP was detected in mock- and STS-treated cells.
# [2] = tested on: procaspase-3 (caspase-3p32); assay: Western blot of inactive procaspase-3 (caspase-3p32), densitometric scanning; type: cell-based, human
# Description: as §4
# as §5, with “(BSA). After washing with TN-T buffer, the blots were incubated for 2 hours at room temperature with the appropriate antibodies diluted in TN-T buffer containing 0.1% BSA. After three washes with TN-T buffer, the blots were incubated with Protein A-Peroxidase for 1 hour at room temperature.” for “(BSA).”
# caspase-3p20 = assay: Immunohistochemistry for activated caspase-3 cleavage product (caspase-3p20) in HEK293, JHL15, JHLA1 cells; type: cell-based, human; conditions: STS-treated, ±SEM
# From the text: FIG. 3B is a graph depicting inhibition of caspase activation by ICP10PK. HEK93, JHL15, and JHLA1 cells treated with STS (as described in FIG. 3A) were stained with caspase3p20 antibody (specific for the activated caspase-3 which is the large fragment of the pro-enzyme), and cells in five randomly chosen microscopic fields were counted. Results are expressed as mean percentage of positive cells±SEM (*=p<0.01 vs. HEK294; +=p<0.01 vs. JHL15 by Student test).
# Previous reports have shown that STS-induced cell death is a caspase-dependent process (Jacobson et al., 1996, J. Cell. Biol., 133:1041-1051). […] To determine whether ICP10PK inhibits cleavage of pro-caspase-3, a central determinant of many apoptotic processes, Western blot analysis was performed on cell lysates obtained from STS-treated cells. […] The densitometric units were equal to 0.7 for both STS-treated HEK293 and JHL15 cells and 1.0 and 1.1 for DMSO-treated HEK293 and JHL15 cells, respectively). The levels of caspase-3p32 were similar in STS-treated and untreated JHLA1 cells (FIG. 3A, lanes 5 and 6, respectively). In this case, the densitometric units were equal to 1.2 for both treatments.
# P-MAPK1/2 = assay: Immunoblot of P-MAPK1/2 (MAPK activation) in hippocampal neurons; type: cell-based, rat; conditions: 20 micromoles U0126
# Description: Cells were lysed with RIPA buffer (30 mM Tris-Hcl pH=7.4, 0.15 mM NaCl, 1% Nonidet P-40, 0/1% SDS, 0.5% sodium deoxycholate, 1 mM EDTA, 1 mM DTT, 2 mM MgCl2, 0.5 mM PMSF) supplemented with phosphatase and protease inhibitor cocktails (Sigma, St. Louis, Mo.) and sonicated for 1 minute at 25% output power using the Sonicator/Ultrasonic Processor (Misonix, Inc., Farmingdale, N.Y.). Total protein was determined by BCA (Pierce, Rockford, Ill.) and proteins were resolved by SDS-PAGE. Transfer of separated proteins to Schlecher and Schuell nitrocellulose membranes was performed overnight using an electroblotting apparatus. Non-specific binding was blocked by incubating blots for 1 hour at 37° C. in TN-T buffer (0.01 M Tris-Hcl pH=7.4, 0.15 M NaCl, 0.05% Tween 20) containing 1% bovine serum albumin (BSA). After washing with TN-T buffer, the blots were incubated for 2 hours at room temperature with the appropriate antibodies diluted in TN-T buffer containing 0.1% BSA. After three washes with TN-T buffer, the blots were incubated with Protein A-Peroxidase for 1 hour at room temperature. […]
# Culture of hippocampal neurons were infected with HSV-2 or ICP10deltaPK at 10 PFU/cell and analyzed for MAPK activation by immunoblotting with antibodies specific for the unphosphorylated (MAPK) and phosphorylated (activated) MAPK species (P-MAPK1/2). […]
structure (smiles),measurement,setting,value
"OC[C@@H](O)[C@@H](O)[C@H](O)[C@H](O)CO [D-Mann, D-mannitol]",percentage of apoptotic (TUNEL-positive) cells,JHL15 cells,58±7%
same,percentage of apoptotic (TUNEL-positive) cells,JHLA1 cells,13±8%
same,percentage of apoptotic (TUNEL-positive) cells,HEK293 cells,79±7.4%
same,DNA fragmentation (DNA ladder pattern),chromosomal DNA; HEK293 cells,exhibited a DNA ladder pattern characteristic of apoptosis
same,DNA fragmentation (DNA ladder pattern),chromosomal DNA; JHLA1 cells,did not exhibit DNA fragmentation
O=c1cc(N2CCOCC2)oc2c(-c3ccccc3)cccc12 [LY294002],percentage of TUNEL-positive cells,"[1]; HSV-2 infected cultures, 100 micromolar LY294002",24.8±2.3
same,percentage of TUNEL-positive cells,"[1]; mock-infected cultures, 100 micromolar LY294002 (non-treated 5±3)",72±4.5
"CN[C@@H]1C[C@H]2O[C@@](C)([C@@H]1OC)n1c3ccccc3c3c4c(c5c6ccccc6n2c5c31)C(=O)NC4 [STS, staurosporine]",85 kDa PARP cleavage product,PARP; HEK293 cells,detected
same,85 kDa PARP cleavage product,PARP; JHL15 cells,detected
same,percentage of apoptotic (TUNEL-positive) cells,JHL15 cells,79±4.9%
same,levels of caspase-3p32,"[2]; HEK293 cells, STS 250 nM (DMSO control 1.0)",0.7 densitometric units
same,levels of caspase-3p32,"[2]; JHL15 cells, STS 250 nM (DMSO control 1.1)",0.7 densitometric units
same,levels of caspase-3p32,"[2]; JHLA1 cells, STS 250 nM (untreated 1.2)",1.2 densitometric units
same,mean percentage of cells positive for caspase-3p20,caspase-3p20; HEK293 cells,40.5±0.9%
same,mean percentage of cells positive for caspase-3p20,caspase-3p20; JHL15 cells,36.4±7.6%
same,mean percentage of cells positive for caspase-3p20,caspase-3p20; JHLA1 cells,9.3±0.1%
same,percentage of apoptotic (TUNEL-positive) cells,JHLA1 cells,5.8 ± 2.1%
same,percentage of apoptotic (TUNEL-positive) cells,HEK293 cells,71±12.4%
same,DNA fragmentation (DNA ladder pattern),chromosomal DNA; HEK293 cells,exhibited a DNA ladder pattern characteristic of apoptosis
same,DNA fragmentation (DNA ladder pattern),chromosomal DNA; JHLA1 cells,did not exhibit DNA fragmentation
N#CC(=C(/N)Sc1ccccc1N)/C(C#N)=C(\N)Sc1ccccc1N [U0126],P-MAPK1/2 levels vs untreated HSV-2 infected cells,P-MAPK1/2,significantly lower
same,percentage of TUNEL-positive (apoptotic) cells,"[1]; HSV-2 infected cultures, 10 micromoles U0126",20±1.6%
same,percentage of TUNEL-positive (apoptotic) cells,"[1]; HSV-2 infected cultures, 20 micromoles U0126",39.3±2.8%
